± gives the expanded uncertainty stated by the source.
Test: molar heat capacity at constant pressure; xn = mol fraction of the nth substance listed
Conditions: 101 kPa, Liquid

CC(O)CN (stereo not given) [1-amino-2-propanol] + O
molar heat capacity at constant pressure [J/K/mol]
Conditions | x1 = 0.1 | x1 = 0.2007 | x1 = 0.2996 | x1 = 0.4001 | x1 = 0.4983 | x1 = 0.6013 | x1 = 0.6999 | x1 = 0.7996 | x1 = 0.8959 | x1 = 1
303.15 K | 95 ± 1 | 110 ± 1 | 121 ± 1 | 133 ± 1 | 145 ± 1 | 158 ± 1 | 170 ± 2 | 183 ± 2 | 196 ± 2 | 209 ± 2
308.15 K | 97 ± 1 | 113 ± 1 | 124 ± 1 | 137 ± 1 | 149 ± 1 | 162 ± 1 | 174 ± 2 | 187 ± 2 | 200 ± 2 | 213 ± 2
313.15 K | 98 ± 1 | 114 ± 1 | 126 ± 1 | 139 ± 1 | 151 ± 1 | 164 ± 1 | 176 ± 2 | 188 ± 2 | 201 ± 2 | 214 ± 2
318.15 K | 99 ± 1 | 116 ± 1 | 128 ± 1 | 141 ± 1 | 154 ± 1 | 166 ± 1 | 177 ± 2 | 190 ± 2 | 202 ± 2 | 215 ± 2
323.15 K | 100 ± 1 | 117 ± 1 | 130 ± 1 | 144 ± 1 | 156 ± 1 | 168 ± 1 | 180 ± 2 | 192 ± 2 | 204 ± 2 | 217 ± 2
328.15 K | 102 ± 1 | 119 ± 1 | 133 ± 1 | 147 ± 1 | 159 ± 1 | 171 ± 2 | 182 ± 2 | 194 ± 2 | 206 ± 2 | 218 ± 2
333.15 K | 104 ± 1 | 121 ± 1 | 136 ± 1 | 150 ± 1 | 162 ± 1 | 174 ± 2 | 185 ± 2 | 197 ± 2 | 209 ± 2 | 221 ± 2
338.15 K | 106 ± 1 | 125 ± 1 | 140 ± 1 | 154 ± 1 | 166 ± 1 | 178 ± 2 | 188 ± 2 | 200 ± 2 | 211 ± 2 | 223 ± 2
343.15 K | 109 ± 1 | 128 ± 1 | 144 ± 1 | 158 ± 1 | 170 ± 2 | 181 ± 2 | 192 ± 2 | 203 ± 2 | 214 ± 2 | 225 ± 2
348.15 K | 112 ± 1 | 133 ± 1 | 149 ± 1 | 163 ± 1 | 175 ± 2 | 185 ± 2 | 195 ± 2 | 206 ± 2 | 216 ± 2 | 228 ± 2
353.15 K | 117 ± 1 | 138 ± 1 | 155 ± 1 | 169 ± 1 | 180 ± 2 | 190 ± 2 | 199 ± 2 | 209 ± 2 | 219 ± 2 | 230 ± 2

NCCNCCO [N-(2-aminoethyl)ethanolamine] + O
molar heat capacity at constant pressure [J/K/mol]
Conditions | x1 = 0.0999 | x1 = 0.1999 | x1 = 0.2995 | x1 = 0.4 | x1 = 0.5002 | x1 = 0.5997 | x1 = 0.7011 | x1 = 0.8003 | x1 = 0.8979 | x1 = 1
303.15 K | 100 ± 1 | 121 ± 1 | 141 ± 1 | 161 ± 1 | 181 ± 2 | 201 ± 2 | 221 ± 2 | 240 ± 2 | 258 ± 2 | 279 ± 2
308.15 K | 103 ± 1 | 125 ± 1 | 145 ± 1 | 165 ± 1 | 185 ± 2 | 205 ± 2 | 226 ± 2 | 245 ± 2 | 263 ± 2 | 284 ± 2
313.15 K | 104 ± 1 | 127 ± 1 | 147 ± 1 | 167 ± 1 | 187 ± 2 | 207 ± 2 | 227 ± 2 | 247 ± 2 | 265 ± 2 | 285 ± 2
318.15 K | 106 ± 1 | 129 ± 1 | 150 ± 1 | 170 ± 2 | 190 ± 2 | 209 ± 2 | 229 ± 2 | 249 ± 2 | 266 ± 2 | 286 ± 2
323.15 K | 107 ± 1 | 131 ± 1 | 152 ± 1 | 172 ± 2 | 192 ± 2 | 211 ± 2 | 231 ± 2 | 250 ± 2 | 267 ± 2 | 287 ± 2
328.15 K | 110 ± 1 | 134 ± 1 | 155 ± 1 | 175 ± 2 | 195 ± 2 | 214 ± 2 | 233 ± 2 | 252 ± 2 | 269 ± 2 | 289 ± 2
333.15 K | 112 ± 1 | 137 ± 1 | 158 ± 1 | 178 ± 2 | 197 ± 2 | 216 ± 2 | 235 ± 2 | 254 ± 2 | 271 ± 2 | 290 ± 2
338.15 K | 116 ± 1 | 141 ± 1 | 162 ± 1 | 181 ± 2 | 201 ± 2 | 219 ± 2 | 238 ± 2 | 257 ± 2 | 273 ± 2 | 292 ± 2
343.15 K | 120 ± 1 | 146 ± 1 | 167 ± 1 | 185 ± 2 | 204 ± 2 | 223 ± 2 | 241 ± 2 | 260 ± 2 | 275 ± 2 | 293 ± 2
348.15 K | 124 ± 1 | 152 ± 1 | 172 ± 2 | 189 ± 2 | 208 ± 2 | 227 ± 2 | 244 ± 2 | 262 ± 2 | 277 ± 2 | 295 ± 2
353.15 K | 130 ± 1 | 158 ± 1 | 177 ± 2 | 194 ± 2 | 213 ± 2 | 231 ± 2 | 248 ± 2 | 265 ± 2 | 279 ± 2 | 296 ± 2

NCCCO [3-amino-1-propanol] + O
molar heat capacity at constant pressure [J/K/mol]
Conditions | x1 = 0.0999 | x1 = 0.2001 | x1 = 0.3003 | x1 = 0.4015 | x1 = 0.4996 | x1 = 0.6006 | x1 = 0.7003 | x1 = 0.8003 | x1 = 0.8966 | x1 = 1
303.15 K | 94 ± 1 | 108 ± 1 | 120 ± 1 | 131 ± 1 | 143 ± 1 | 155 ± 1 | 168 ± 1 | 180 ± 2 | 193 ± 2 | 204 ± 2
308.15 K | 96 ± 1 | 111 ± 1 | 123 ± 1 | 135 ± 1 | 147 ± 1 | 159 ± 1 | 171 ± 2 | 184 ± 2 | 196 ± 2 | 207 ± 2
313.15 K | 97 ± 1 | 112 ± 1 | 124 ± 1 | 136 ± 1 | 148 ± 1 | 160 ± 1 | 172 ± 2 | 185 ± 2 | 197 ± 2 | 208 ± 2
318.15 K | 98 ± 1 | 113 ± 1 | 126 ± 1 | 138 ± 1 | 150 ± 1 | 162 ± 1 | 173 ± 2 | 186 ± 2 | 198 ± 2 | 208 ± 2
323.15 K | 99 ± 1 | 115 ± 1 | 128 ± 1 | 140 ± 1 | 152 ± 1 | 163 ± 1 | 175 ± 2 | 187 ± 2 | 199 ± 2 | 209 ± 2
328.15 K | 101 ± 1 | 117 ± 1 | 130 ± 1 | 142 ± 1 | 154 ± 1 | 166 ± 1 | 177 ± 2 | 189 ± 2 | 200 ± 2 | 210 ± 2
333.15 K | 103 ± 1 | 119 ± 1 | 132 ± 1 | 145 ± 1 | 157 ± 1 | 169 ± 1 | 179 ± 2 | 191 ± 2 | 202 ± 2 | 211 ± 2
338.15 K | 106 ± 1 | 122 ± 1 | 135 ± 1 | 148 ± 1 | 160 ± 1 | 172 ± 2 | 182 ± 2 | 193 ± 2 | 204 ± 2 | 213 ± 2
343.15 K | 110 ± 1 | 126 ± 1 | 139 ± 1 | 151 ± 1 | 163 ± 1 | 175 ± 2 | 185 ± 2 | 196 ± 2 | 206 ± 2 | 214 ± 2
348.15 K | 114 ± 1 | 130 ± 1 | 143 ± 1 | 155 ± 1 | 167 ± 1 | 179 ± 2 | 188 ± 2 | 198 ± 2 | 208 ± 2 | 216 ± 2
353.15 K | 119 ± 1 | 135 ± 1 | 147 ± 1 | 160 ± 1 | 172 ± 2 | 183 ± 2 | 192 ± 2 | 201 ± 2 | 210 ± 2 | 217 ± 2

From the NIST ThermoML archive (doi:10.1021/je0604232)
